Measurements: ChEMBL document CHEMBL1139510, “Early absorption and distribution analysis of antitumor and anti-AIDS drugs: lipid membrane and plasma protein interactions” (J Med Chem, 2005)

Assays:
Type in all cases: ADME
Albumin [1] = target: T1, Albumin (Homo sapiens, UniProt P02768); assay: Association rate constant for the interaction between the compound and serum albumin
Albumin [2] = target: T1, Albumin; assay: Equilibrium dissociation constant for the interaction between the compound and serum albumin
Albumin [3] = target: T1, Albumin; assay: Dissociation rate constant for the interaction between the compound and serum albumin

T1 sequence (P02768 whole entry): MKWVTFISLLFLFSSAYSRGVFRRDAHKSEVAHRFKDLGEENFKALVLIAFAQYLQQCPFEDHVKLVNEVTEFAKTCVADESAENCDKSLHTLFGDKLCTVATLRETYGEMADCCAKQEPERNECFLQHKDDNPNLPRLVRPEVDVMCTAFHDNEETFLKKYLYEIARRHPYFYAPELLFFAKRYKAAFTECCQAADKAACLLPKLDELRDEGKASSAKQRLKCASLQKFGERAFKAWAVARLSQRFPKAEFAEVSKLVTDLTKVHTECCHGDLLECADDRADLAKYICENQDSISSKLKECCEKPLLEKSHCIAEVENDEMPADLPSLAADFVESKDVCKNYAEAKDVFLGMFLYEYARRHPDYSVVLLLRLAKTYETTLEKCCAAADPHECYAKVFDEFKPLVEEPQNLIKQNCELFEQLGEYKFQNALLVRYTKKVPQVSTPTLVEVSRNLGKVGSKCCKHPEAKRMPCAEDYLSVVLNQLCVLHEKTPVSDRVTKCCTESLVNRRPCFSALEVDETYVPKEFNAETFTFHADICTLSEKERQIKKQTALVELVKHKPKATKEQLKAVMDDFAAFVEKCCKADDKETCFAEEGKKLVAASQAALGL

| Structure (SMILES) | kon (Albumin [1]; read-out: Kon1) | kon (Albumin [1]; read-out: Kon2) | Kd (Albumin [2]; read-out: KD1) | Kd (Albumin [2]; read-out: KD2) | Koff1 (Albumin [3]) | Koff2 (Albumin [3]) |
| --- | --- | --- | --- | --- | --- | --- |
| CC(=O)O[C@@]1(C2/C(C)=C(/O)C(=O)C3=C(C)[C@@H](OC(=O)[C@H](O)[C@H](CC(C)C)NC(=O)OC(C)(C)C)C[C@@](O)([C@H]2OC(=O)c2ccccc2)C3(C)C)CO[C@@H]1CCO (stereo partly specified) | 5900 M⁻¹ s⁻¹ | 33.1 M⁻¹ s⁻¹ | 319 µM | 1820 µM | 1.875 s⁻¹ | 0.045 s⁻¹ |
| Cc1c(O)cccc1C(=O)N[C@@H](CSc1ccccc1)[C@H](O)CN1C[C@H]2CCCC[C@H]2C[C@H]1C(=O)NC(C)(C)C | 1800 M⁻¹ s⁻¹ | 12.6 M⁻¹ s⁻¹ | 230 µM | 6 µM | 0.413 s⁻¹ |  |
| CC(=O)O[C@@]12CO[C@@H]1C[C@H](O)[C@@]1(C)C(=O)[C@H](O)C3=C(C)[C@@H](OC(=O)[C@H](O)[C@@H](NC(=O)OC(C)(C)C)c4ccccc4)C[C@@](O)([C@@H](OC(=O)c4ccccc4)[C@H]21)C3(C)C.O.O.O [DOCETAXEL] | 7700 M⁻¹ s⁻¹ | 43.7 M⁻¹ s⁻¹ | 199 µM | 2110 µM | 1.505 s⁻¹ | 0.069 s⁻¹ |
| CC(=O)O[C@H]1C(=O)[C@@]2(C)C([C@H](OC(=O)c3ccccc3)[C@]3(O)C[C@H](OC(=O)[C@H](O)[C@@H](NC(=O)c4ccccc4)c4ccccc4)C(C)=C1C3(C)C)[C@]1(OC(C)=O)CO[C@@H]1C[C@@H]2OC(=O)CCC(=O)O (stereo partly specified) | 7300 M⁻¹ s⁻¹ | 36.4 M⁻¹ s⁻¹ | 192 µM | 1170 µM | 1.183 s⁻¹ | 0.033 s⁻¹ |

Other lines, results leading:

| kon (Albumin [1]; read-out: Kon1) | kon (Albumin [1]; read-out: Kon2) | Kd (Albumin [2]; read-out: KD1) | Kd (Albumin [2]; read-out: KD2) | Koff1 (Albumin [3]) | Koff2 (Albumin [3]) | Structure (SMILES) |
| --- | --- | --- | --- | --- | --- | --- |
| 25900 M⁻¹ s⁻¹ | 10.1 M⁻¹ s⁻¹ | 24 µM | 6 µM | 0.619 s⁻¹ |  | Cc1cccc(C)c1OCC(=O)N[C@@H](Cc1ccccc1)[C@@H](O)C[C@H](Cc1ccccc1)NC(=O)[C@H](C(C)C)N1CCCNC1=O [LOPINAVIR] |
| 25000 M⁻¹ s⁻¹ | 282 M⁻¹ s⁻¹ | 34 µM | 301 µM | 0.856 s⁻¹ | 0.085 s⁻¹ | CC(C)(C)NC(=O)[C@@H]1C[C@@H]2CCCC[C@@H]2CN1C[C@@H](O)[C@H](Cc1ccccc1)NC(=O)[C@H](CC(N)=O)NC(=O)c1ccc2ccccc2n1 |
| 9600 M⁻¹ s⁻¹ | 41.8 M⁻¹ s⁻¹ | 149 µM | 599 µM | 1.43 s⁻¹ | 0.025 s⁻¹ | COC(=O)N[C@H](C(=O)N[C@@H](Cc1ccccc1)[C@@H](O)CN(Cc1ccc(-c2ccccn2)cc1)NC(=O)[C@@H](NC(=O)OC)C(C)(C)C)C(C)(C)C [ATAZANAVIR] |
| 22100 M⁻¹ s⁻¹ | 208 M⁻¹ s⁻¹ | 124 µM | 328 µM | 2.75 s⁻¹ | 0.068 s⁻¹ | CC(C)CN(C[C@@H](O)[C@H](Cc1ccccc1)NC(=O)O[C@H]1CCOC1)S(=O)(=O)c1ccc(N)cc1 |
